Source: publication PMC10975061, “Cellular Uptake and Transport Mechanism Investigations of PEGylated Niosomes for Improving the Oral Delivery of Thymopentin” (Pharmaceutics, 2024)
Read-outs that look alike come from different tables or passages of the source. Peptide text beside a SMILES is read from it.

Legend:
[1] = tested on: Caco-2 and HT-29 co-cultured cells; experiment: MTT cytotoxicity (cell viability) assay
Method: MTT assay was used for the cytotoxicity study. […] The DMEM was discarded, and the Caco-2 and HT-29 co-cultured cells were washed with PBS before introducing TP5 test samples. […] Subsequently, 20 μL of MTT (5 mg/mL) was added, and the cells were incubated for an additional 4 h. Dimethyl sulfoxide (DMSO) was introduced to dissolve the formazan crystals, and the absorbance at 570 nm was measured using a microplate UV-Vis spectrophotometer (SpectraMax® Plus, Molecular Devices, San Jose, CA, USA). The percentage of cell viability was calculated in comparison to the untreated control group.
For each test sample group and at every time point over the course of three days, cell viability was computed. The outcomes were consolidated using the SoftMax Pro v5 software system through Equation (1). (1) V=A/A0×100% where V is the cell viability, A is sample absorbance, and A0 is control absorbance.
The concentration of these selected inhibitors and enhancers was screened by cytotoxicity using Caco-2 and HT-29 co-cultured cells by MTT assay. Then, these inhibitors and enhancers with safe concentrations were added to the AP side with a 0.5 mL 1 mg/mL solution of TP5 and TP5-PEG-niosomes, respectively. All inhibitors were dissolved in dimethyl sulfoxide and diluted with HBSS. The transport characteristics of TP5 and TP5-PEG-niosomes through Caco-2 and HT-29 co-cultured cell monolayers were expressed as the cumulative transported drug and transport rate. The transport rate (Flux) was denoted in μg/min/cm^2 and computed using the formula Flux = (dM/dt)/A, where dM/dt represents the cumulative amount of TP5 in the BL side per unit time (µg/min), and A is the surface area of the insert membrane (1.1 cm^2). […] The TEER values of the monolayers were assessed at 1 h intervals throughout the experimental duration, guaranteeing the integrity of the monolayers.

[2] = tested on: Caco-2 and HT-29 co-cultured cells; experiment: Quantitative cellular uptake of TP5 (RP-HPLC and BCA protein assay), with inhibitors and low temperature; format: in vitro ADME, human
Method: Briefly, 5 mL of Caco-2 and HT-29 co-cultured cells’ suspension at a density of 10^5 cells/cm^2 was seeded onto 60 mm plastic dishes (Corning, New York, NY, USA), fed complete DMEM every 3 days and incubated at 37 °C in an atmosphere of 5% CO2 and 95% relative humidity. […] Then, 25 µL of the cell lysates from each well were subjected to a BCA protein assay (Thermo Scientific, Waltham, MA, USA) to determine the amount of cell protein. The entire protein concentration in each group was calculated based on the linearity equation obtained from the BSA standard curve. Then, cell lysates were centrifuged for 15 min at 14,000 rpm, and the supernatants were analyzed for the amount of uptake TP5 using the RP-HPLC method mentioned earlier. The uptake of TP5 by Caco-2 and HT-29 co-cultured cells was calculated and expressed as the amount of drug (ng) uptake per µg cell protein. One of the mechanisms for cellular uptake depends on concentration. […] The treated Caco-2 and HT-29 co-cultured cells were then scraped off into a 2 mL microcentrifuge tube containing 1.0 mL extraction solution (10% Triton X-100) and sonicated to accelerate cell lysis. Then, 25 µL of the cell lysates from each well were subjected to a BCA protein assay (Thermo Scientific, Waltham, MA, USA) to determine the amount of cell protein as mentioned above. Then, cell lysates were centrifuged for 15 min at 14,000 rpm, and the supernatants were analyzed for the amount of uptake TP5 using the RP-HPLC method mentioned above. The uptake of TP5 by Caco-2 and HT-29 co-cultured cells was calculated and expressed as the amount of drug (ng) uptake per µg cell protein. […] The incubation temperature of 4 °C was also tested. After the removal of the drug solution and formulation (4 h incubation), the dishes were immediately rinsed twice with ice-cold HBSS solution (5 mL). The treated Caco-2 and HT-29 co-cultured cells were then scraped off into a 2 mL microcentrifuge tube containing 1.0 mL extraction solution (10% Triton X-100) and sonicated to accelerate cell lysis. Furthermore, 25 µL of the cell lysates from each well were subjected to a BCA protein assay (Thermo Scientific, Waltham, MA, USA) to determine the amount of cell protein mentioned above. Then, cell lysates were centrifuged for 15 min at 14,000 rpm, and the supernatants were analyzed for the amount of cellular uptake TP5 using the RP-HPLC method mentioned above. The uptake of TP5 by Caco-2 and HT-29 co-cultured cells was calculated and expressed as the amount of drug (ng) uptake per µg cell protein.

[3] = Transepithelial transport across Transwell monolayers (AP to BL), with inhibitors and enhancers; format: in vitro ADME, human; conditions: apical to basolateral, 6 h
Method: (§1) Caco-2 and HT-29 co-cultured cells at a density of 10^5 cells/cm^2 were seeded on 12-well Insert Transwell® inserts (0.4 µm pore diameter, 1.1 cm^2 area, Corning, New York, NY, USA). Caco-2 and HT-29 co-cultured cells were incubated at 37 °C in an atmosphere of 5% CO2 and 95% relative humidity in complete DMEM. The medium was replaced every 3 days with 0.5 mL medium on the apical (AP) side and 1.5 mL on the basolateral (BL) side, as shown in Figure 2. The integrity of the co-cultured cell monolayer was assessed by monitoring transepithelial electrical resistance (TEER). TEER measurements were conducted using a Millicell-ERS Volt-Ohm meter connected to a pair of chopstick electrodes (Millipore Corp, Boston, MA, USA). […] TEER measurements were taken at 3-day intervals until the TEER values surpassed 350 Ω·cm^2 (around 24 days post-seeding in this study). The TEER calculation utilized the formula TEER = (Rm − Rb) × A, where Rm, Rb, and A represent the measured TEER values, TEER values of the blank transwell, and the membrane surface area of the transwell (1.13 cm^2), respectively. Caco-2 monolayers with TEER values exceeding 350 Ω·cm^2 were deemed to have acceptable integrity and were considered suitable for the transport study.
(§2) Before the transport experiments, Caco-2 and HT-29 co-cultured cell monolayers underwent equilibration with HBSS for 30 min and were subsequently aspirated. All transport studies were carried out at 37 °C. A 0.5 mL solution of TP5 and TP5-PEG-niosomes (0.1 mg TP5 per mL in HBSS) was introduced on the AP side, while the BL side of the inserts contained 1.5 mL of HBSS, as depicted in Figure 2. At 0, 60, 120, 240, and 360 min of incubation, 200 µL was withdrawn from the BL-receiving chamber and immediately replaced with an equal volume of pre-warmed HBSS (37 °C). The concentration of TP5 in the transport medium was analyzed using RP-HPLC.
(§3) TP5 transport mechanisms were investigated in the absence or presence of variable inhibitors or enhancers. […] […].

[4] = tested on: Caco-2 and HT-29 co-cultured cell monolayers; experiment: as above; format: in vitro ADME, human
Method: as §1, §2, §3

CC(C)[C@H](NC(=O)[C@H](CC(=O)O)NC(=O)[C@H](CCCCN)NC(=O)[C@@H](N)CCCN=C(N)N)C(=O)N[C@@H](Cc1ccc(O)cc1)C(=O)O [TP5, thymopentin] (H-RKDVY-OH)
cytotoxicity (MTT cell viability) ([1]; TP5 solutions 0.005 to 10 mg/mL, 24, 48 and 72 h): not toxic
cellular uptake amount with adsorptive-mediated endocytosis inhibitor ([2]; 1 mM protamine sulphate, 4 h, p < 0.005): significantly reduced
cellular uptake amount at low temperature ([2]; 4 °C, 4 h): significantly decreased
time of highest amount of cellular uptake drug ([2]; HPLC and BCA assay, time course 0.5-5 h): 2 h
cellular uptake value ([2]; pure drug solution, in 2 h, maintained afterwards): 3.56 ± 1.13 ng/µg
Papp A→B ([3]; EDTA (10 mM), read-out: Papp values): 1.42 ± 0.089 nm/s
Papp A→B ([3]; chlorpromazine (10 μg/mL), read-out: Papp values): 0.573 ± 0.063 nm/s
Papp A→B ([3]; lowest to highest over no treatment, inhibitors and enhancers, read-out: range of Papp values over all treatments): 0.43 to 1.34 nm/s
Papp A→B ([3]; no treatment, read-out: Papp values): 0.539 ± 0.046 nm/s
Papp A→B ([3]; silymarin (20 µM), read-out: Papp values): 0.43 ± 0.055 nm/s
Papp A→B ([3]; sodium azide (20 mM), read-out: Papp values): 0.59 ± 0.052 nm/s
Papp A→B ([3]; sodium taurocholate (20 mM), read-out: Papp values): 1.34 ± 0.052 nm/s
TP5 cumulative amount with EDTA ([4]; EDTA group, after the first 60 min): increase sharply
cumulative amount of TP5 transported, comparison between groups ([4]; no treatment, AP to BL): no significant difference
TP5 cumulative amount with sodium taurocholate ([4]; sodium taurocholate group, after the first 60 min): increase sharply

CN(C)CCCN1c2ccccc2Sc2ccc(Cl)cc21 [chlorpromazine]
safe but still effective concentration for treatment ([1]; human, 72 h): 10 µg/mL

CN(C)C(=O)CCSC(SCCC(=O)O)c1cccc(/C=C/c2ccc3ccc(Cl)cc3n2)c1 (stereo not shown) [MK-571]
safe but still effective concentration for treatment ([1]; MTT, 72 h at 37 °C): 0.1 mM

[N-]=[N+]=[N-].[Na+] [sodium azide]
safe but still effective concentration for treatment ([1]; MTT, 72 h at 37 °C): 20 mM

C[C@H](CCC(=O)NCCS(=O)(=O)O)[C@H]1CC[C@H]2[C@@H]3[C@H](O)C[C@@H]4C[C@H](O)CC[C@]4(C)[C@H]3C[C@H](O)[C@]12C [Sodium taurocholate]
safe but still effective concentration for treatment ([1]; MTT, 72 h at 37 °C): 20 mM
